According to the NIST ThermoML archive (doi:10.1021/je400463n):
± gives the expanded uncertainty stated by the source.

Test: mn = molality of the nth substance listed, in mol/kg
Conditions: 100 kPa, Liquid, Pycnometric method

CCCCCCCCCCCC[N+](C)(C)C.[Br-] [dodecyltrimethylammonium bromide] + O
mass density [kg/m3]
Conditions | 293.15 K | 298.15 K | 303.15 K | 308.15 K | 313.15 K | 318.15 K
m1 = 0.00608 | 998.345 ± 0.23 | 997.176 ± 0.25 | 995.77 ± 0.26 | 994.144 ± 0.27 | 992.319 ± 0.28 | 990.306 ± 0.29
m1 = 0.00707 | 998.368 ± 0.23 | 997.197 ± 0.25 | 995.79 ± 0.26 | 994.162 ± 0.27 | 992.336 ± 0.28 | 990.321 ± 0.29
m1 = 0.00796 | 998.388 ± 0.23 | 997.216 ± 0.25 | 995.807 ± 0.26 | 994.178 ± 0.27 | 992.35 ± 0.28 | 990.334 ± 0.29
m1 = 0.00897 | 998.411 ± 0.23 | 997.237 ± 0.25 | 995.827 ± 0.26 | 994.196 ± 0.27 | 992.367 ± 0.28 | 990.349 ± 0.29
m1 = 0.00999 | 998.434 ± 0.23 | 997.259 ± 0.25 | 995.847 ± 0.26 | 994.214 ± 0.27 | 992.383 ± 0.28 | 990.364 ± 0.29
m1 = 0.01096 | 998.456 ± 0.23 | 997.28 ± 0.25 | 995.866 ± 0.26 | 994.232 ± 0.27 | 992.399 ± 0.28 | 990.379 ± 0.29
m1 = 0.01199 | 998.48 ± 0.23 | 997.302 ± 0.25 | 995.886 ± 0.26 | 994.25 ± 0.27 | 992.416 ± 0.28 | 990.394 ± 0.29
m1 = 0.01299 | 998.503 ± 0.23 | 997.324 ± 0.25 | 995.905 ± 0.26 | 994.268 ± 0.27 | 992.432 ± 0.28 | 990.409 ± 0.29
m1 = 0.01398 | 998.524 ± 0.23 | 997.343 ± 0.25 | 995.923 ± 0.26 | 994.286 ± 0.27 | 992.448 ± 0.28 | 990.424 ± 0.29
m1 = 0.01503 | 998.543 ± 0.23 | 997.363 ± 0.25 | 995.942 ± 0.26 | 994.304 ± 0.27 | 992.466 ± 0.28 | 990.44 ± 0.29
m1 = 0.01596 | 998.556 ± 0.23 | 997.376 ± 0.25 | 995.956 ± 0.26 | 994.32 ± 0.27 | 992.48 ± 0.28 | 990.454 ± 0.29
m1 = 0.01802 | 998.592 ± 0.23 | 997.408 ± 0.25 | 995.986 ± 0.26 | 994.345 ± 0.27 | 992.506 ± 0.28 | 990.48 ± 0.29
m1 = 0.02001 | 998.622 ± 0.23 | 997.435 ± 0.25 | 996.013 ± 0.26 | 994.37 ± 0.27 | 992.532 ± 0.28 | 990.503 ± 0.29
m1 = 0.02494 | 998.695 ± 0.23 | 997.505 ± 0.25 | 996.077 ± 0.26 | 994.432 ± 0.27 | 992.587 ± 0.28 | 990.558 ± 0.29
m1 = 0.02994 | 998.775 ± 0.23 | 997.58 ± 0.25 | 996.147 ± 0.26 | 994.498 ± 0.27 | 992.647 ± 0.28 | 990.616 ± 0.29
m1 = 0.03501 | 998.85 ± 0.23 | 997.647 ± 0.25 | 996.212 ± 0.26 | 994.557 ± 0.27 | 992.706 ± 0.28 | 990.671 ± 0.29
m1 = 0.03995 | 998.918 ± 0.23 | 997.712 ± 0.25 | 996.271 ± 0.26 | 994.615 ± 0.27 | 992.76 ± 0.28 | 990.721 ± 0.29
m1 = 0.04505 | 998.991 ± 0.23 | 997.78 ± 0.25 | 996.336 ± 0.26 | 994.675 ± 0.27 | 992.817 ± 0.28 | 990.774 ± 0.29
m1 = 0.04973 | 999.061 ± 0.23 | 997.845 ± 0.25 | 996.396 ± 0.26 | 994.733 ± 0.27 | 992.871 ± 0.28 | 990.824 ± 0.29
m1 = 0.05498 | 999.145 ± 0.23 | 997.923 ± 0.25 | 996.47 ± 0.26 | 994.801 ± 0.27 | 992.935 ± 0.28 | 990.883 ± 0.29
m1 = 0.06001 | 999.217 ± 0.23 | 997.992 ± 0.25 | 996.535 ± 0.26 | 994.86 ± 0.27 | 992.993 ± 0.28 | 990.938 ± 0.29
